Assay results taken from ChEMBL document CHEMBL1152546, “N-[2-chloro-9H-purin-6-yl]-N-cyclopropylglycylamino acids and derivatives: synthesis, evaluation as a class of novel analgesics, and 3D QSAR analysis” (2009).

Legend:
Mus musculus [1] = test: Analgesic activity in ICR mouse assessed as pain threshold variation at 20 umol/kg, ip administered as single dose measured after 30 mins by tail flick test relative to control; assay type: functional
Mus musculus [2] = test: Analgesic activity in ICR mouse assessed as pain threshold variation at 20 umol/kg, ip administered as single dose measured after 120 mins by tail flick test relative to control; assay type: functional
Mus musculus [3] = test: Analgesic activity in ICR mouse assessed as pain threshold variation at 20 umol/kg, ip administered as single dose measured after 180 mins by tail flick test relative to control; assay type: functional
Mus musculus [4] = test: Analgesic activity in ICR mouse assessed as pain threshold variation at 20 umol/kg, ip administered as single dose measured after 90 mins by tail flick test relative to control; assay type: functional
Mus musculus [5] = test: Analgesic activity in ICR mouse assessed as pain threshold variation at 20 umol/kg, ip administered as single dose measured after 150 mins by tail flick test relative to control; assay type: functional
Mus musculus [6] = test: Analgesic activity in ICR mouse assessed as pain threshold variation at 20 umol/kg, ip administered as single dose measured after 60 mins by tail flick test relative to control; assay type: functional
Mus musculus [7] = test: Analgesic activity in ICR mouse assessed as pain threshold variation at 6.25 umol/kg, po administered as single dose measured after 120 mins by tail flick test relative to control; assay type: functional
Mus musculus [8] = test: Analgesic activity in ICR mouse assessed as pain threshold variation at 25 umol/kg, po administered as single dose measured after 150 mins by tail flick test relative to control; assay type: functional
Mus musculus [9] = test: Analgesic activity in ICR mouse assessed as pain threshold variation at 12.5 umol/kg, po administered as single dose measured after 150 mins by tail flick test relative to control; assay type: functional
Mus musculus [10] = test: Analgesic activity in ICR mouse assessed as pain threshold variation at 6.25 umol/kg, po administered as single dose measured after 90 mins by tail flick test relative to control; assay type: functional
Mus musculus [11] = test: Analgesic activity in ICR mouse assessed as pain threshold variation at 12.5 umol/kg, po administered as single dose measured after 30 mins by tail flick test relative to control; assay type: functional
Mus musculus [12] = test: Analgesic activity in ICR mouse assessed as pain threshold variation at 12.5 umol/kg, po administered as single dose measured after 60 mins by tail flick test relative to control; assay type: functional
Mus musculus [13] = test: Analgesic activity in ICR mouse assessed as pain threshold variation at 25 umol/kg, po administered as single dose measured after 90 mins by tail flick test relative to control; assay type: functional
Mus musculus [14] = test: Analgesic activity in ICR mouse assessed as pain threshold variation at 6.25 umol/kg, po administered as single dose measured after 150 mins by tail flick test relative to control; assay type: functional
Mus musculus [15] = test: Analgesic activity in ICR mouse assessed as pain threshold variation at 12.5 umol/kg, po administered as single dose measured after 180 mins by tail flick test relative to control; assay type: functional
Mus musculus [16] = test: Analgesic activity in ICR mouse assessed as pain threshold variation at 12.5 umol/kg, po administered as single dose measured after 90 mins by tail flick test relative to control; assay type: functional
Mus musculus [17] = test: Analgesic activity in ICR mouse assessed as pain threshold variation at 25 umol/kg, po administered as single dose measured after 120 mins by tail flick test relative to control; assay type: functional
Mus musculus [18] = test: Analgesic activity in po dosed ICR mouse assessed as pain threshold variation administered as single dose measured after 30 to 180 mins by tail flick test; assay type: functional, organism-based
Mus musculus [19] = test: Analgesic activity in ICR mouse assessed as pain threshold variation at 25 umol/kg, po administered as single dose measured after 180 mins by tail flick test relative to control; assay type: functional
Mus musculus [20] = test: Analgesic activity in ICR mouse assessed as pain threshold variation at 6.25 umol/kg, po administered as single dose measured after 180 mins by tail flick test relative to control; assay type: functional
Mus musculus [21] = test: Analgesic activity in ICR mouse assessed as pain threshold variation at 25 umol/kg, po administered as single dose measured after 30 mins by tail flick test relative to control; assay type: functional
Mus musculus [22] = test: Analgesic activity in ICR mouse assessed as pain threshold variation at 6.25 umol/kg, po administered as single dose measured after 30 mins by tail flick test relative to control; assay type: functional
Mus musculus [23] = test: Analgesic activity in ICR mouse assessed as pain threshold variation at 25 umol/kg, po administered as single dose measured after 60 mins by tail flick test relative to control; assay type: functional
Mus musculus [24] = test: Analgesic activity in ICR mouse assessed as pain threshold variation at 6.25 umol/kg, po administered as single dose measured after 60 mins by tail flick test relative to control; assay type: functional
Mus musculus [25] = test: Analgesic activity in ICR mouse assessed as pain threshold variation at 12.5 umol/kg, po administered as single dose measured after 120 mins by tail flick test relative to control; assay type: functional

CN1CC[C@]23c4c5ccc(O)c4O[C@H]2[C@@H](O)C=C[C@H]3[C@H]1C5 [MORPHINE]
Activity (Mus musculus [1]): 147% | Activity (Mus musculus [2]): 64.9% | Activity (Mus musculus [3]): 32.9% | Activity (Mus musculus [4]): 122.7% | Activity (Mus musculus [5]): 36.7% | Activity (Mus musculus [6]): 177.6%

NCCCC[C@H](NC(=O)CN(c1nc(Cl)nc2[nH]cnc12)C1CC1)C(=O)OCc1ccccc1
Activity (Mus musculus [7]): 9.01% | Activity (Mus musculus [8]): 9.88% | Activity (Mus musculus [9]): 9.91% | Activity (Mus musculus [10]): 11.3% | Activity (Mus musculus [11]): 18.5% | Activity (Mus musculus [12]): 29.98% | Activity (Mus musculus [13]): 35.27% | Activity (Mus musculus [14]): 4.87% | Activity (Mus musculus [15]): 3.72% | Activity (Mus musculus [16]): 25.42% | Activity (Mus musculus [17]): 16.79% | Activity (Mus musculus [18]): Dose-dependent effect | Activity (Mus musculus [19]): 2.24% | Activity (Mus musculus [20]): 3.95% | Activity (Mus musculus [21]): 26.13% | Activity (Mus musculus [22]): 9.19% | Activity (Mus musculus [23]): 41.16% | Activity (Mus musculus [24]): 14.83% | Activity (Mus musculus [25]): 11.35%

CC(C)C[C@H](NC(=O)CN(c1nc(Cl)nc2[nH]cnc12)C1CC1)C(=O)O
Activity (Mus musculus [7]): 9.44% | Activity (Mus musculus [8]): 9.13% | Activity (Mus musculus [9]): 7.77% | Activity (Mus musculus [10]): 16.17% | Activity (Mus musculus [11]): 15.99% | Activity (Mus musculus [12]): 17.3% | Activity (Mus musculus [13]): 26.97% | Activity (Mus musculus [14]): 5.56% | Activity (Mus musculus [15]): 5.5% | Activity (Mus musculus [16]): 20.93% | Activity (Mus musculus [17]): 18.74% | Activity (Mus musculus [18]): Dose-dependent effect | Activity (Mus musculus [19]): 3.63% | Activity (Mus musculus [20]): 2.8% | Activity (Mus musculus [21]): 23.4% | Activity (Mus musculus [22]): 8.01% | Activity (Mus musculus [23]): 36.37% | Activity (Mus musculus [24]): 10.66% | Activity (Mus musculus [25]): 13.32%

O=C(CN(c1nc(Cl)nc2[nH]cnc12)C1CC1)NCC(=O)OCc1ccccc1
Activity (Mus musculus [7]): 8.04% | Activity (Mus musculus [8]): 17.99% | Activity (Mus musculus [9]): 6.2% | Activity (Mus musculus [10]): 9.93% | Activity (Mus musculus [11]): 11.25% | Activity (Mus musculus [12]): 23.74% | Activity (Mus musculus [13]): 27.18% | Activity (Mus musculus [14]): 3.47% | Activity (Mus musculus [15]): 5.45% | Activity (Mus musculus [16]): 19% | Activity (Mus musculus [17]): 21.69% | Activity (Mus musculus [18]): Dose-dependent effect | Activity (Mus musculus [19]): 8.31% | Activity (Mus musculus [20]): 2.64% | Activity (Mus musculus [21]): 18.65% | Activity (Mus musculus [22]): 5.73% | Activity (Mus musculus [23]): 41.91% | Activity (Mus musculus [24]): 13.19% | Activity (Mus musculus [25]): 14.62%
